Among the data in US5356888A, “1,1-dioxo-cephem-4-carbothiolic acid derivatives” (Farmitalia Carlo Erba, priority 1988, dated 1994) are kon and Ki values, retold here.

For this assay, the target named is T1, human leukocyte elastase (HLE) (Homo sapiens, UniProt P08246).
T1 construct: purchased Calbiochem Lot 702038
T1 sequence (P08246 30-267): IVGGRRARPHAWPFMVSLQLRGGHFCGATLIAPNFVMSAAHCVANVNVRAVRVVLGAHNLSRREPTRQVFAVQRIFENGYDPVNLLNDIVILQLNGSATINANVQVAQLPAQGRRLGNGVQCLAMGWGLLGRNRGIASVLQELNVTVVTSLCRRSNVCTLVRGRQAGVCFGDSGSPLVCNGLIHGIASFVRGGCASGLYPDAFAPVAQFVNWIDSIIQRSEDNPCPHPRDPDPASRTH
As to the kind of experiment: Kinetic parameters for HLE inhibition (release of 7-amino-4-methylcoumarin from N-methoxysuccinyl-alanylprolyl-valyl-7-amido-4-methylcoumarin, fluorescence detection). The class given is biochemical. The following applies: 37° C., 0.027 M pH 7.4 phosphate buffer, 1% DMSO, 1% MeCN, NaCl (I=0.15); for kon: read-out: kon (rate of formation of the HLE-inhibitor complex); for Ki: steady state, read-out: Ki^ss (apparent dissociation constant of the HLE-inhibitor complex at steady state). From the text: Km =Michaelis constant for the enzyme-substrate pair (independently determined under the same experimental conditions).

By kon is commonly meant a measure of how fast the partners come together.

In the case of `CC(=O)OCC1=C(C(=O)SC(C)(C)C)N2C(=O)[C@H](Cl)[C@H]2S(=O)(=O)C1` [Comp. 3], the kon is 480000 M⁻¹ s⁻¹ and the Ki was 2.6 nM. For `CC(=O)OCC1=C(C(=O)SCc2ccccc2)N2C(=O)[C@H](Cl)[C@H]2S(=O)(=O)C1` [Comp. 11, Benzyl 3-acetoxymethyl-7S-chloro-8-oxo-5-thia-1-azabicyclo-[4,2,0]oct-2-ene-5,5-dioxide-2-carbothiolate], in that order: 1.26e+06 M⁻¹ s⁻¹ and 8.2 nM.

With `COCC1=C(C(=O)SC(C)(C)C)N2C(=O)[C@H](Cl)[C@H]2S(=O)(=O)C1` [Comp. 59, t-Butyl 7S-chloro-3-methoxymethyl-8-oxo-5-thia-1-azabicyclo [4,2,0]oct-2-ene-5,5-dioxide-2-carbothiolate], the on-rate constant (kon) was 150000 M⁻¹ s⁻¹ and the Ki turned out to be 16 nM. In the case of `Cn1nnnc1SCC1=C(C(=O)SC(C)(C)C)N2C(=O)[C@H](Cl)[C@H]2S(=O)(=O)C1` [Comp. 60, t-Butyl 7S-chloro-3-(1-methyl-1,2,3,4-tetrazol-5-yl) thiomethyl-8-oxo-5-thia-1-azabicyclo[4,2,0]oct-2-ene-5,5-dioxide-2-carbothiolate], the Ki was determined as 4.3 nM.
